Laboratory results reported in patent EP2380597A1, “Cyclopeptide derivatives and uses thereof” (Technische Universität München, priority 2010, dated 2011).
*1 amine or outer side, *2 acyl side, *3 side chain or, on linkers, in order; H or OH if unused. Where a SMILES comes first, the peptide text is derived from it. Bridges are numbered along the chain shown (N, C = ends). Roman numbers before positions name the chains, in order. [ ]: non-standard residue; d: D form. The star is where a group is joined. dAla(N-(6-guanidinohexyl)) = C[C@@H](NCCCCCCNC(=N)N)C(=O)O; DOTA = O=C(O)CN1CCN(CC(=O)O)CCN(CC(=O)*)CCN(CC(=O)O)CC1; X6 = C[C@H](C(=O)[*:2])N(CCCCCCCNC(=O)c1ccc(F)cc1)[*:1]; X14 = C[C@H](C(=O)[*:2])N(CCCCCNC(=O)c1ccc(F)cc1)[*:1]; X8 = C[C@H](C(=O)[*:2])N(CCCCCCNC(=O)c1ccc(F)cc1)[*:1]; X5 = C[C@H](C(=O)[*:2])N(CCCCCCNCc1cccc2ccccc12)[*:1]; X9 = C[C@H](C(=O)[*:2])N(CCCCNC(=O)c1ccc(F)cc1)[*:1]; X4 = C[C@H](C(=O)[*:2])N(CCCCCCNCc1ccccc1)[*:1]; X1 = C[C@@H](C(=O)[*:2])N(CCCCCCNC(=N)N)[*:1]; X7 = CC(=O)NCCCCCCN([C@H](C)C(=O)[*:2])[*:1]; X3 = C[C@H](C(=O)[*:2])N(CCCCCCN[*:3])[*:1]; X10 = C[C@@H](C(=O)[*:2])N(CCCCCCN)[*:1]; X12 = C[C@H](C(=O)[*:2])N(CCCCCCN)[*:1]; X2 = C[C@H](C(=O)[*:2])N(CCCCCCCN)[*:1]; X13 = C[C@H](C(=O)[*:2])N(CCCCCN)[*:1]; 2Nal = N[C@@H](Cc1ccc2ccccc2c1)C(=O)O; Suberoyl = O=C(CCCCCCC(=O)[*:2])[*:1]; X11 = C[C@H](C(=O)[*:2])N(CCCCN)[*:1]; Adipoyl = O=C(CCCCC(=O)[*:2])[*:1]; Gly(N-(CH2)6NH2) = NCCCCCCNCC(=O)O; Suc = O=C(CCC(=O)[*:2])[*:1]

Molecular target: T1, CXCR4 receptor (Homo sapiens, UniProt P61073)
T1 construct: endogenous in cells; host or cells: Jurkat cells
T1 sequence (P61073 whole entry): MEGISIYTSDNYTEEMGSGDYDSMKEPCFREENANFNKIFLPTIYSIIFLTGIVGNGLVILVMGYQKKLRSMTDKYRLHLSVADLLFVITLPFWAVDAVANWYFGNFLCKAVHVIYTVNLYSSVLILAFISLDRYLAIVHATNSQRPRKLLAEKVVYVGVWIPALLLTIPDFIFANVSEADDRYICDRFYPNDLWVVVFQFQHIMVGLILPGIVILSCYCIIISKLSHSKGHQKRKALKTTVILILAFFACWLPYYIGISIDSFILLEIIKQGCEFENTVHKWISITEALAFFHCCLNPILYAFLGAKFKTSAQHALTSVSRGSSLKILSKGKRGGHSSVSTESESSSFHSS
Experiment: Receptor binding assay (competition with 125I tracer on Jurkat cells)
Settings: tracer cyclo(-D-Tyr^1 [^125I]-Arg^2-Arg^3-Nal^4-Gly^5), 2 h at room temperature
Experimental: For receptor binding assays cells were resuspended in PBS/0.2 % BSA. A total of 200 µl of the suspension containing 400,000 Jurkat cells were incubated with 25 µl of the tracer solution (containing 100000cpm / 25µl, approx. 0.1 nM) and 25 µl of the diluent or the competitor at different concentrations. For determination of IC50 values, cyclo(-D-Tyr^1 [^125I]-Arg^2-Arg^3-Nal^4-Gly^5) was used as a tracer. Nonspecific binding was determined in the presence of 1 µM cold cyclo(-D-Tyr^1[^127I]-Arg^2-Arg^3-Nal^4-Gly^5). After shaking for 2 h at room temperature, the incubation was terminated by centrifugation at 2000 rpm for 5 min. Cell pellets were washed once with 400µl cold PBS followed by a second centrifugation step. Cell bound radioactivity was determined by using a gamma counter. Experiments were repeated 2-3 times in triplicates. IC50 values of the compounds were calculated by nonlinear regression using GraphPad Prism (GraphPad Prism 4.0 Software, Inc., San Diego, CA, USA). Each data point is the average of three determinations.

Row | SMILES | IC50 (alkyl chain length n varied) | IC50 (D-Ala N-hexyl series, R varied) | other results
1 | C[C@@H]1C(=O)N[C@@H](CCCNC(=N)N)C(=O)N[C@@H](Cc2ccc3ccccc3c2)C(=O)NCC(=O)N[C@H](Cc2ccc(O)cc2)C(=O)N1CCCCCCCNC(=O)c1ccc(F)cc1 [ya(Hept,FBz)RNalG, cyclo(-D-Tyr-(α-7-aminoheptyl, 4-fluorobenzoic acid)-D-Ala-R-Nal-G)] (cyclo([dY][X6]R[2Nal]G)) | 16.5 ± 3.1 nM | – | –
2 | C[C@H]1C(=O)N[C@@H](CCCNC(=N)N)C(=O)N[C@@H](Cc2ccc3ccccc3c2)C(=O)NCC(=O)N[C@H](Cc2ccc(O)cc2)C(=O)N1CCCCCCNC(=N)N [yA(Hex,Gua)RNa IG, cyclo(-D-Tyr-(α-6-guanidinohexyl)-L-Ala-R-Nal-G)] (cyclo([2Nal]G[dY][X1]R)) | – | – | IC50 (L-Ala series): 4.4 ± 0.3 nM
3 | C[C@@H]1C(=O)N[C@@H](CCCNC(=N)N)C(=O)N[C@@H](Cc2ccc3ccccc3c2)C(=O)NCC(=O)N[C@H](Cc2ccc(O)cc2)C(=O)N1CCCCN [ya(But)RNalG, cyclo(-D-Tyr-(α-4-aminobutyl)-D-Ala-R-Nal-G)] (cyclo([2Nal]G[dY][X11]R)) | 0.9 ± 0.1 nM | – | –
4 | C[C@@H]1C(=O)N[C@@H](CCCNC(=N)N)C(=O)N[C@@H](Cc2ccc3ccccc3c2)C(=O)NCC(=O)N[C@H](Cc2ccc(O)cc2)C(=O)N1CCCCCCN [ya(Hex)RNalG] (cyclo([2Nal]G[dY][X12]R)) | – | 0.3 ± 0.2 nM | –
5 | C[C@@H]1C(=O)N[C@@H](CCCNC(=N)N)C(=O)N[C@@H](Cc2ccc3ccccc3c2)C(=O)NCC(=O)N[C@H](Cc2ccc(O)cc2)C(=O)N1CCCCCCCN [ya(Hept)RNalG, cyclo(-D-Tyr-(α-7-aminoheptyl)-D-Ala-R-Nal-G)] (cyclo([2Nal]G[dY][X2]R)) | 2.4 ± 0.8 nM | – | –
6 | C[C@@H]1C(=O)N[C@@H](CCCNC(=N)N)C(=O)N[C@@H](Cc2ccc3ccccc3c2)C(=O)NCC(=O)N[C@H](Cc2ccc(O)cc2)C(=O)N1CCCCCN [ya(Pent)RNalG, cyclo(-D-Tyr-(α-5-aminopentyl)-D-Ala-R-Nal-G)] (cyclo([2Nal]G[dY][X13]R)) | 1.6 ± 0.3 nM | – | –
7 | C[C@@H]1C(=O)N[C@@H](CCCNC(=N)N)C(=O)N[C@@H](Cc2ccc3ccccc3c2)C(=O)NCC(=O)N[C@H](Cc2ccc(O)cc2)C(=O)N1CCCCCCNC(=N)N [ya(Hex, Gua) RNalG, cyclo(-D-Tyr-(α-6-guanidinohexyl)-D-Ala-R-Nal-G)] (cyclo([dY][dAla(N-(6-guanidinohexyl))]R[2Nal]G)) | – | 0.04 ± 0.02 nM | –
8 | CC(=O)NCCCCCCN1C(=O)[C@@H](Cc2ccc(O)cc2)NC(=O)CNC(=O)[C@H](Cc2ccc3ccccc3c2)NC(=O)[C@H](CCCNC(=N)N)NC(=O)[C@H]1C [ya(Hex,Ac) RNalG, cyclo(-D-Tyr-(α-6-aminohexyl, Ac)-D-Ala-R-Nal-G)] (cyclo([2Nal]G[dY][X7]R)) | – | 44.1 ± 6.2 nM | –
9 | C[C@@H]1C(=O)N[C@@H](CCCNC(=N)N)C(=O)N[C@@H](Cc2ccc3ccccc3c2)C(=O)NCC(=O)N[C@H](Cc2ccc(O)cc2)C(=O)N1CCCCCCNCc1cccc2ccccc12 [ya(Hex,1 Nap) RNalG, cyclo(-D-Tyr-(α-6-aminohexyl,1-naphthylmethyl)-D-Ala-R-Nal-G)] (cyclo([2Nal]G[dY][X5]R)) | – | 5.1 ± 1.3 nM | –
10 | C[C@@H]1C(=O)N[C@@H](CCCNC(=N)N)C(=O)N[C@@H](Cc2ccc3ccccc3c2)C(=O)NCC(=O)N[C@H](Cc2ccc(O)cc2)C(=O)N1CCCCNC(=O)c1ccc(F)cc1 [ya(But,FBz)RNalG, cyclo(-D-Tyr-(α-4-aminobutyl, 4-fluorobenzoic acid)-D-Ala-R-Nal-G)] (cyclo([2Nal]G[dY][X9]R)) | 26 ± 5.7 nM | – | –
11 | C[C@@H]1C(=O)N[C@@H](CCCNC(=N)N)C(=O)N[C@@H](Cc2ccc3ccccc3c2)C(=O)NCC(=O)N[C@H](Cc2ccc(O)cc2)C(=O)N1CCCCCCNC(=O)CCCCC(=O)NCCCCCCN1C(=O)[C@@H](Cc2ccc(O)cc2)NC(=O)CNC(=O)[C@H](Cc2ccc3ccccc3c2)NC(=O)[C@H](CCCNC(=N)N)NC(=O)[C@H]1C [Dimer 6, ya(Hex)RNalG hexan-1,6-diacid dimer] (I: cyclo([2Nal]G[dY][X3]R) / II: cyclo([2Nal]G[dY][X3]R); linker I:4-II:4 via Adipoyl) | – | – | IC50 (dimers): 7.8 ± 3.1 nM
12 | N=C(N)NCCC[C@@H]1NC(=O)CN(CCCCCCN)C(=O)[C@@H](Cc2ccc(O)cc2)NC(=O)CNC(=O)[C@H](Cc2ccc3ccccc3c2)NC1=O [yG(Hex)RNalG, cyclo(-D-Tyr-(α-6-aminohexyl)-G-R-Nal-G)] (cyclo([2Nal]G[dY][Gly(N-(CH2)6NH2)]R)) | – | – | IC50 (Gly analogue): 104 nM
13 | C[C@@H]1C(=O)N[C@@H](CCCNC(=N)N)C(=O)N[C@@H](Cc2ccc3ccccc3c2)C(=O)NCC(=O)N[C@H](Cc2ccc(O)cc2)C(=O)N1CCCCCNC(=O)c1ccc(F)cc1 [ya(Pent, FBz)RNalG, cyclo(-D-Tyr-(α-5-aminopentyl, 4-fluorobenzoic acid)-D-Ala-R-Nal-G)] (cyclo([2Nal]G[dY][X14]R)) | 34.2 ± 9.3 nM | – | –
14 | C[C@H]1C(=O)N[C@@H](CCCNC(=N)N)C(=O)N[C@@H](Cc2ccc3ccccc3c2)C(=O)NCC(=O)N[C@H](Cc2ccc(O)cc2)C(=O)N1CCCCCCN [yA(Hex)RNalG] (cyclo([2Nal]G[dY][X10]R)) | – | – | IC50 (L-Ala series): 94.2 ± 38 nM
15 | C[C@@H]1C(=O)N[C@@H](CCCNC(=N)N)C(=O)N[C@@H](Cc2ccc3ccccc3c2)C(=O)NCC(=O)N[C@H](Cc2ccc(O)cc2)C(=O)N1CCCCCCNCc1ccccc1 [ya(Hex, Bz) RNalG, cyclo(-D-Tyr-(α-6-aminohexyl, benzyl)-D-Ala-R-Nal-G)] (cyclo([2Nal]G[dY][X4]R)) | – | 4.2 ± 1.4 nM | –
16 | C[C@@H]1C(=O)N[C@@H](CCCNC(=N)N)C(=O)N[C@@H](Cc2ccc3ccccc3c2)C(=O)NCC(=O)N[C@H](Cc2ccc(O)cc2)C(=O)N1CCCCCCNC(=O)CCC(=O)NCCCCCCN1C(=O)[C@@H](Cc2ccc(O)cc2)NC(=O)CNC(=O)[C@H](Cc2ccc3ccccc3c2)NC(=O)[C@H](CCCNC(=N)N)NC(=O)[C@H]1C [Dimer 4, ya(Hex)RNalG butan-1,4-diacid dimer] (I: cyclo([2Nal]G[dY][X3]R) / II: cyclo([2Nal]G[dY][X3]R); linker I:4-II:4 via Suc) | – | – | IC50 (dimers): 5.5 ± 1.4 nM
17 | C[C@@H]1C(=O)N[C@@H](CCCNC(=N)N)C(=O)N[C@@H](Cc2ccc3ccccc3c2)C(=O)NCC(=O)N[C@H](Cc2ccc(O)cc2)C(=O)N1CCCCCCNC(=O)CN1CCN(CC(=O)O)CCN(CC(=O)O)CCN(CC(=O)O)CC1 [ya(Hex,DOTA) RNalG, cyclo(-D-Tyr-(α-6-aminohexyl, DOTA)-D-Ala-R-Nal-G)] (cyclo([2Nal]G[dY][X3](DOTA)R)) | – | 509.7 ± 0.2 nM | –
18 | C[C@@H]1C(=O)N[C@@H](CCCNC(=N)N)C(=O)N[C@@H](Cc2ccc3ccccc3c2)C(=O)NCC(=O)N[C@H](Cc2ccc(O)cc2)C(=O)N1CCCCCCNC(=O)CCCCCCC(=O)NCCCCCCN1C(=O)[C@@H](Cc2ccc(O)cc2)NC(=O)CNC(=O)[C@H](Cc2ccc3ccccc3c2)NC(=O)[C@H](CCCNC(=N)N)NC(=O)[C@H]1C [Dimer 8, ya(Hex)RNalG octan-1,8-diacid dimer] (I: cyclo([2Nal]G[dY][X3]R) / II: cyclo([2Nal]G[dY][X3]R); linker I:4-II:4 via Suberoyl) | – | – | IC50 (dimers): 15.9 ± 10.6 nM
19 | C[C@@H]1C(=O)N[C@@H](CCCNC(=N)N)C(=O)N[C@@H](Cc2ccc3ccccc3c2)C(=O)NCC(=O)N[C@H](Cc2ccc(O)cc2)C(=O)N1CCCCCCNC(=O)c1ccc(F)cc1 [ya(Hex, FBz) RNalG, cyclo(-D-Tyr-(α-6-aminohexyl, 4-fluorobenzoic acid)-D-Ala-R-Nal-G)] (cyclo([2Nal]G[dY][X8]R)) | – | 21.4 ± 5.8 nM | –
